Assay results reported in US9120793B2, “Triazolo-pyridine compound” (Eli Lilly and Company, priority 2013, dated 2015).
pKi: −log10 of the molar value.

Legend:
PPARδ = target: T1, PPARδ (Homo sapiens, UniProt Q03181); assay: PPARδ reporter (CTF)/functional assay in CV1 cells; type: cell-based; conditions: examined up to 10 μM; efficacy <20% considered negative
T1 construct: expressed in transfected cells; host or cells: CV1 (African green monkey kidney)
T1 sequence (Q03181 211-439 limits assumed): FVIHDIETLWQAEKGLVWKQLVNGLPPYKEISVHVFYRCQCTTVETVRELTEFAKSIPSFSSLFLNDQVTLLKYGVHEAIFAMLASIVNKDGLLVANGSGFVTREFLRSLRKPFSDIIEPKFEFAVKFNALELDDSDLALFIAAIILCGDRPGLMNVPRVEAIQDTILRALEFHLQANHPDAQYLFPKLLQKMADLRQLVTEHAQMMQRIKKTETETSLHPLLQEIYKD
Text: Because GPR-40 is known to be activated by ligands to PPARγ, exemplified compounds are examined in PPARα, PPARδ, and PPARγ reporter assays to determine the selectivity of an exemplified compound. CV1 cells, which are derived from the renal tissue of an African green monkey, are transfected with various receptor and reporter plasmids using Fugene. For the PPARα and PPARδ assays, a reporter plasmid containing five tandem copies of the yeast transcription protein Gal4 response element, cloned upstream of a firefly luciferase gene driven by the major late promoter of adenovirus, is transfected together with a Simian Virus 40 (SV40) driven plasmid constitutively expressing a hybrid protein containing the Gal4 DNA binding domain (DBD), and either the PPARα or PPARδ ligand binding domain. For the PPARγ assay, plasmids encoding PPARγ and RXRα, both driven by a cytomegalovirus (CMV) promoter are transfected together with a plasmid containing luciferase reporter cDNA driven by the TK promoter and a receptor response element (2×PPRE). […] After 24 hours incubation with compound, cells are lysed and luciferase activity is determined as a measure of receptor activation by luminescence. […] The maximum percent stimulation is determined versus maximum stimulation obtained with 10 μM of an appropriate PPAR agonist reference compound. […]

human GPR-40 (hGPR-40) = target: T2, human GPR-40 (hGPR-40) (Homo sapiens, UniProt O14842); assay: Radioligand competition binding, in vitro binding affinity to GPR-40; conditions: 5 nM [3H] TAK-875; membranes of HEK293 cells overexpressing hGPR-40; Cheng-Prusoff
T2 construct: expressed in transfected cells; host or cells: HEK293 (membranes)
Text: Competition curves are plotted as the percent specific inhibition versus concentration of compound and analyzed using a four parameter nonlinear regression fit with variable slope. […] See Cheng, Y. and Prusoff, W. H. (1973) “Relationship between the inhibition constant (Ki) and the concentration of inhibitor which causes 50 per cent inhibition (IC50) of an enzymatic reaction,” Biochem Pharmacol 22(23):3099-3108. […] (Mean±SEM; SEM=standard error of the mean.).

Zucker fa/fa rats = assay: Chronic oral glucose tolerance test (OGTT); type: in vivo, rat
Description: OGTTs are performed in Zucker fa/fa rats, a rodent model of insulin resistance, after 1 and 21 days of orally administered exemplified compound at 1.0, 3.0 and 10 mg/kg. A standard GPR-40 agonist at 1 mg/kg serves as the positive control. OGTTs are performed one hour post compound administration with blood samples taken for determination of glucose and insulin levels at 10, 20, 40, 60, and 120 minutes post glucose administration. […] Weight and food consumption are not altered due to any treatment during the study.

T2 sequence (O14842 whole entry): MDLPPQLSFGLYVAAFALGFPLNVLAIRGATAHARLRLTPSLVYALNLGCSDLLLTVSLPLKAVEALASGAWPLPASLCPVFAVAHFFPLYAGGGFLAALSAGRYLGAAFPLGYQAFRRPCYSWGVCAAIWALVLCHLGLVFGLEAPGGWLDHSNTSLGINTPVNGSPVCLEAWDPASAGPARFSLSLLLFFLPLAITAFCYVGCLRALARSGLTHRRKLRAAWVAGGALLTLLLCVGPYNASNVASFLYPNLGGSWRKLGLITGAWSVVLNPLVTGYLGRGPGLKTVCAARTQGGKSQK

CC#C[C@@H](CC(=O)O)c1ccc(OCc2ccc3nc(-c4c(C)cccc4C)nn3c2)cc1 [Example 1, (3S)-3-[4-[[2-(2,6-Dimethylphenyl)-[1,2,4]triazolo[1,5-a]pyridin-6-yl]methoxy]phenyl]hex-4-ynoic acid]
functional activation of PPARδ (PPARδ): No functional activation
pKi (human GPR-40 (hGPR-40)): 7.83
Weight and food consumption (Zucker fa/fa rats; 21 days oral administration, any treatment): not altered
ED90 for glucose lowering (Zucker fa/fa rats; day 1, oral): 4.1 mg/kg
ED90 for glucose lowering (Zucker fa/fa rats; day 21, oral): 5.0 mg/kg
AUCs for glucose lowering (Zucker fa/fa rats; days 1 and 21, oral 1, 3 and 10 mg/kg, p<0.05): statistically significant
Insulin AUCs during the OGTTs (Zucker fa/fa rats; oral 1, 3 and 10 mg/kg, values not statistically significant): dose dependent elevation
